Test: mn = molality of the nth substance listed, in mol/kg
Details: Liquid; for viscosity: Capillary tube (Ostwald / Ubbelohde) method; for mass density: Constant-volume piezometry

O=S(=O)([O-])[O-].[Mg+2] [magnesium sulfate] + O
Details	mass density [kg/m3]	viscosity [mPa·s]
348.15 K, 100 kPa, m1 = 2.291	–	1.503
348.15 K, 101 kPa, m1 = 0.084	984.5	–
348.15 K, 101 kPa, m1 = 0.261	1004.83	–
348.15 K, 101 kPa, m1 = 0.469	1028.4	–
348.15 K, 101 kPa, m1 = 0.841	1069.05	–
348.15 K, 10000 kPa, m1 = 0.437	–	0.4948
348.15 K, 10000 kPa, m1 = 2.291	–	1.514
348.15 K, 30000 kPa, m1 = 0.437	–	0.5024
348.15 K, 30000 kPa, m1 = 2.291	–	1.536
348.2 K, 100 kPa, m1 = 1.824	–	1.127
348.2 K, 10000 kPa, m1 = 1.824	–	1.135
348.2 K, 30000 kPa, m1 = 1.824	–	1.151
348.23 K, 2118 kPa, m1 = 2.224	1208.2	–
348.23 K, 8002 kPa, m1 = 2.224	1210.4	–
348.23 K, 14710 kPa, m1 = 2.224	1212.2	–
348.23 K, 25300 kPa, m1 = 2.224	1215.7	–
348.23 K, 30020 kPa, m1 = 2.224	1217.1	–
348.25 K, 100 kPa, m1 = 0.255	–	0.4399
348.25 K, 10000 kPa, m1 = 0.255	–	0.4432
348.25 K, 30000 kPa, m1 = 0.255	–	0.4502
348.32 K, 100 kPa, m1 = 0.085	–	0.3976
348.32 K, 10000 kPa, m1 = 0.085	–	0.4008
348.32 K, 30000 kPa, m1 = 0.085	–	0.4066
348.35 K, 100 kPa, m1 = 2.623	–	1.849
348.35 K, 10000 kPa, m1 = 2.623	–	1.863
348.35 K, 30000 kPa, m1 = 2.623	–	1.889
348.36 K, 100 kPa, m1 = 0.722	–	0.5831
348.36 K, 10000 kPa, m1 = 0.722	–	0.5875
348.36 K, 30000 kPa, m1 = 0.722	–	0.5961
348.75 K, 100 kPa, m1 = 0.923	–	0.6495
348.75 K, 10000 kPa, m1 = 0.923	–	0.6548
348.75 K, 30000 kPa, m1 = 0.923	–	0.6642
358.95 K, 101 kPa, m1 = 2.224	1200.88	–
358.95 K, 101 kPa, m1 = 2.535	1228.61	–
370.1 K, 100 kPa, m1 = 2.291	–	1.068
370.1 K, 10000 kPa, m1 = 2.291	–	1.078
370.1 K, 30000 kPa, m1 = 2.291	–	1.099
370.4 K, 100 kPa, m1 = 0.923	–	0.4894
370.4 K, 10000 kPa, m1 = 0.923	–	0.4945
370.4 K, 30000 kPa, m1 = 0.923	–	0.5035
370.45 K, 100 kPa, m1 = 0.085	–	0.3053
370.45 K, 100 kPa, m1 = 0.722	–	0.4386
370.45 K, 10000 kPa, m1 = 0.085	–	0.3084
370.45 K, 10000 kPa, m1 = 0.722	–	0.4433
370.45 K, 30000 kPa, m1 = 0.085	–	0.3144
370.45 K, 30000 kPa, m1 = 0.722	–	0.4516
370.75 K, 100 kPa, m1 = 2.623	–	1.295
370.75 K, 10000 kPa, m1 = 2.623	–	1.308
370.75 K, 30000 kPa, m1 = 2.623	–	1.333
371.44 K, 100 kPa, m1 = 1.824	–	0.804
371.44 K, 10000 kPa, m1 = 1.824	–	0.811
371.44 K, 30000 kPa, m1 = 1.824	–	0.827
371.9 K, 100 kPa, m1 = 0.437	–	0.3654
371.9 K, 10000 kPa, m1 = 0.437	–	0.3694
371.9 K, 30000 kPa, m1 = 0.437	–	0.3766
372.4 K, 100 kPa, m1 = 0.255	–	0.33
372.4 K, 10000 kPa, m1 = 0.255	–	0.3336
372.4 K, 30000 kPa, m1 = 0.255	–	0.34
373.22 K, 3020 kPa, m1 = 2.535	1220.3	–
373.22 K, 6610 kPa, m1 = 2.535	1221.6	–
373.22 K, 14380 kPa, m1 = 2.535	1224.1	–
373.22 K, 21080 kPa, m1 = 2.535	1226.1	–
373.22 K, 24710 kPa, m1 = 2.535	1227.4	–
373.22 K, 29800 kPa, m1 = 2.535	1229	–
373.24 K, 2275 kPa, m1 = 2.224	1192.8	–
373.24 K, 7355 kPa, m1 = 2.224	1194.5	–
373.24 K, 12870 kPa, m1 = 2.224	1196.4	–
373.24 K, 20420 kPa, m1 = 2.224	1198.9	–
373.24 K, 29820 kPa, m1 = 2.224	1201.7	–
394.16 K, 10000 kPa, m1 = 2.623	–	0.963
394.16 K, 30000 kPa, m1 = 2.623	–	0.985
396.25 K, 10000 kPa, m1 = 0.923	–	0.377
396.25 K, 30000 kPa, m1 = 0.923	–	0.3862
397.1 K, 10000 kPa, m1 = 1.824	–	0.605
397.1 K, 30000 kPa, m1 = 1.824	–	0.619
397.14 K, 10000 kPa, m1 = 0.085	–	0.2381
397.14 K, 30000 kPa, m1 = 0.085	–	0.2437
398.15 K, 5810 kPa, m1 = 2.535	1203.8	–
398.15 K, 11100 kPa, m1 = 2.535	1205.6	–
398.15 K, 21700 kPa, m1 = 2.535	1209	–
398.15 K, 29400 kPa, m1 = 2.535	1211.5	–
398.19 K, 2452 kPa, m1 = 2.224	1175.3	–
398.19 K, 7355 kPa, m1 = 2.224	1177.2	–
398.19 K, 12080 kPa, m1 = 2.224	1178.9	–
398.19 K, 19850 kPa, m1 = 2.224	1181.7	–
398.19 K, 26220 kPa, m1 = 2.224	1183.8	–
398.7 K, 10000 kPa, m1 = 2.291	–	0.774
398.7 K, 30000 kPa, m1 = 2.291	–	0.792
398.75 K, 10000 kPa, m1 = 0.437	–	0.2834
398.75 K, 30000 kPa, m1 = 0.437	–	0.2901
399.24 K, 10000 kPa, m1 = 0.722	–	0.3306
399.24 K, 30000 kPa, m1 = 0.722	–	0.3384
399.44 K, 10000 kPa, m1 = 0.255	–	0.2566
399.44 K, 30000 kPa, m1 = 0.255	–	0.2625
422.1 K, 10000 kPa, m1 = 1.824	–	0.477
422.1 K, 30000 kPa, m1 = 1.824	–	0.49
422.35 K, 10000 kPa, m1 = 0.923	–	0.3
422.35 K, 30000 kPa, m1 = 0.923	–	0.3081
422.7 K, 10000 kPa, m1 = 0.085	–	0.1945
422.7 K, 30000 kPa, m1 = 0.085	–	0.1999
423.85 K, 10000 kPa, m1 = 0.255	–	0.2113
423.85 K, 30000 kPa, m1 = 0.255	–	0.2169
424.13 K, 10000 kPa, m1 = 0.437	–	0.23
424.13 K, 30000 kPa, m1 = 0.437	–	0.2366
428.16 K, 10000 kPa, m1 = 0.722	–	0.2597
428.16 K, 30000 kPa, m1 = 0.722	–	0.2673
447.16 K, 10000 kPa, m1 = 0.255	–	0.1798
447.16 K, 30000 kPa, m1 = 0.255	–	0.1855
447.42 K, 10000 kPa, m1 = 0.437	–	0.1966
447.42 K, 30000 kPa, m1 = 0.437	–	0.2019
448.24 K, 10000 kPa, m1 = 0.085	–	0.1643
448.24 K, 30000 kPa, m1 = 0.085	–	0.1694

Reference: the NIST ThermoML archive (doi:10.1021/je0604481)
